Reference: US20230117034A1, “PYRAZOLOTRIAZINES” (Bayer Aktiengesellschaft, priority 2019, published 2023)

Tests used:
[1] = biological target: CDK12/CycK (Homo sapiens, UniProt Q9NYV4); experiment: CDK12/CycK high ATP kinase assay (TR-FRET, 2 mM ATP); assay type: biochemical; details: 2 mM ATP (high ATP); median; read-out: CDK12/CyclinK, 2 mM ATP (high ATP), IC50-[mol/l] (median)
Procedure, shortened: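 His-tagged human CDK12/CycK (~0.75 nM) pre-incubated 15 min with compound, then 60 min at 22 °C with 2 mM ATP and 1 µM biotinylated peptide (HEPES pH 7.5, 20 mM MgCl2). EDTA stop; phospho-Ser62 antibody/Eu anti-rabbit and streptavidin-XL665 TR-FRET, 665/620 nm ratio normalised to give IC50.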

[2] = biological target: T1, CYCLIN K (nuclear staining in CAL-120 cells) (Homo sapiens, UniProt O75909); experiment: CYCLIN K nuclear protein level: immunofluorescence high content analysis (CAL-120); assay type: cell-based; details: 24 h, 50% reduction of nuclear CCNK staining intensity, median, read-out: CYCLIN K degradation IF, DC50-[mol/l] (median)
T1 construct: endogenous in cells; host or cells: CAL-120 human breast cancer cells (DSMZ ACC 459)
Procedure, shortened: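 CAL-120 breast cancer cells treated in dose-response for 24 h at 37 °C, PFA-fixed and immunostained for cyclin K with Hoechst counterstain. Confocal imaging quantified nuclear intensity; DC50 is the concentration giving 50% reduction of nuclear CCNK staining, normalized to DMSO and control.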

Chain of CDK12/CycK (Q9NYV4 with tags, fused parts or gaps): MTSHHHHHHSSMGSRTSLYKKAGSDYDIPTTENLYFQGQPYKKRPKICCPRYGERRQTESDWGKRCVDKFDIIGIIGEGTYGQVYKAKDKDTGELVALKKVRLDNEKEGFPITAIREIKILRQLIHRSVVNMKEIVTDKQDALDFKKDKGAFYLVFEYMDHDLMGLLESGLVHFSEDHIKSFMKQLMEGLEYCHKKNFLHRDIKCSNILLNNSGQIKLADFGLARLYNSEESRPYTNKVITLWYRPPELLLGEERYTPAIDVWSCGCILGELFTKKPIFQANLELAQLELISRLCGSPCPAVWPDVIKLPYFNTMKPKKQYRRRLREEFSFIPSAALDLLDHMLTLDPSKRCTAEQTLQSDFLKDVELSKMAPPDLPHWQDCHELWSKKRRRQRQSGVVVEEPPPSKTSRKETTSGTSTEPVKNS
Chain of CDK12/CycK (O75909 1-300 partner limits assumed): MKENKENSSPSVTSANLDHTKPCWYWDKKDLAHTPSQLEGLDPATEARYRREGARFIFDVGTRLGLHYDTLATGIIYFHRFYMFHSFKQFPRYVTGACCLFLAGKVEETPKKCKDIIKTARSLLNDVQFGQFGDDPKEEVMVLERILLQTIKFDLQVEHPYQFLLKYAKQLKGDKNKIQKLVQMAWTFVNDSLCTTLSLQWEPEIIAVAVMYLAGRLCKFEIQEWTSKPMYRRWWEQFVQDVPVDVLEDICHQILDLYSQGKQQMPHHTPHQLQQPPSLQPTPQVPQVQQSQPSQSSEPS
T1 sequence (O75909 whole entry): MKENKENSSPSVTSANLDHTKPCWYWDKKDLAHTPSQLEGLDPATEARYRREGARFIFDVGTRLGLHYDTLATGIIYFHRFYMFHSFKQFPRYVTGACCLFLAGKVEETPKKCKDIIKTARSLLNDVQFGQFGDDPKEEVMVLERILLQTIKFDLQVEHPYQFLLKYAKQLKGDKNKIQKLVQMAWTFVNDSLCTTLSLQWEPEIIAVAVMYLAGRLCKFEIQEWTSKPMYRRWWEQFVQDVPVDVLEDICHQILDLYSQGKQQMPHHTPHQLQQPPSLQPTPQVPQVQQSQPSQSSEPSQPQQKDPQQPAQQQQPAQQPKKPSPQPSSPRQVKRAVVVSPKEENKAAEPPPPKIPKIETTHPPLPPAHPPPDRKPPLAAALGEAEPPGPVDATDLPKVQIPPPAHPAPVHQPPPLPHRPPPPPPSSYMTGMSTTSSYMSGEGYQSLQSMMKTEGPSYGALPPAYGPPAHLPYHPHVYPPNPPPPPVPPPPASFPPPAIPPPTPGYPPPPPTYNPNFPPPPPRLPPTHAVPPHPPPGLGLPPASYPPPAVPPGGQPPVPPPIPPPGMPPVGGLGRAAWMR
T1 sequence (Q9NYV4 whole entry partner): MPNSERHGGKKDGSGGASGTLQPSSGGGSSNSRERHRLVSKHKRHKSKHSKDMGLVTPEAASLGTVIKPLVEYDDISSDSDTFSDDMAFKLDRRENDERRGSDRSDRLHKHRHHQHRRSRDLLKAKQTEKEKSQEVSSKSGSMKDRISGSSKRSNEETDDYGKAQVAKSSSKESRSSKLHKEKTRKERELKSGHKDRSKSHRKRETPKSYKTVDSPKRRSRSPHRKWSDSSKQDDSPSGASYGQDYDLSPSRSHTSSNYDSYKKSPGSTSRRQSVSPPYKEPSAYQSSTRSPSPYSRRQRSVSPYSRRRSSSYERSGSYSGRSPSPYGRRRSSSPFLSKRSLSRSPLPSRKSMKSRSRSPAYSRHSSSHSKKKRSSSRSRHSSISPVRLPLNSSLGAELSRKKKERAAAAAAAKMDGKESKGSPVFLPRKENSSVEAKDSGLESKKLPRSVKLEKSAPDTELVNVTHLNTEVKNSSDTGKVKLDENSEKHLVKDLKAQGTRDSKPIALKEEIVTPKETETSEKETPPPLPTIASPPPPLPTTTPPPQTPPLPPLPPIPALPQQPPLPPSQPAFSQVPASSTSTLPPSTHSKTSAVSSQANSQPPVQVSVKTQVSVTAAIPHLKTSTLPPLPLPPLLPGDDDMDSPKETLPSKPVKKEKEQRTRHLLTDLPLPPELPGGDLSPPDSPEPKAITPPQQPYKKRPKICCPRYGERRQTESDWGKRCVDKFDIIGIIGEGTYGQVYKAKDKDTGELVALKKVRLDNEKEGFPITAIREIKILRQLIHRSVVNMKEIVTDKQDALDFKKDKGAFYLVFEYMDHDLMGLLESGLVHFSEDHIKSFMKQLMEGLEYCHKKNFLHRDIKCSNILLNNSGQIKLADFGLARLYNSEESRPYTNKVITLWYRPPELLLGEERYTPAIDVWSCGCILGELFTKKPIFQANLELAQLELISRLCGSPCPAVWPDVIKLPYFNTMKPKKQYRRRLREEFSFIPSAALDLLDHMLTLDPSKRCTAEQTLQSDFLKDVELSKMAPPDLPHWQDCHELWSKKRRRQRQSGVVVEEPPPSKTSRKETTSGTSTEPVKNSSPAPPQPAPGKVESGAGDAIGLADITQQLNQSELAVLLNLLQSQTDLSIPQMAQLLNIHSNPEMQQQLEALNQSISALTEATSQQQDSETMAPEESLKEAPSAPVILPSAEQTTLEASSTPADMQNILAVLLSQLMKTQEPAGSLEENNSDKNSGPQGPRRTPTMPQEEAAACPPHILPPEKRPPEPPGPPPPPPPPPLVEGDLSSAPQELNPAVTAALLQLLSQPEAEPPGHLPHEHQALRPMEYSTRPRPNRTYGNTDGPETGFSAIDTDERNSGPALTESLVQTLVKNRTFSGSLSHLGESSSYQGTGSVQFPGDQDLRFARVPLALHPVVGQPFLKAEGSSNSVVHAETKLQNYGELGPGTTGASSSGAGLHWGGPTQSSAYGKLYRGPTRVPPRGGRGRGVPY

Row | Structure (SMILES) | IC50 [1] [nM] | DC50 [2] [nM]
1 | CN(CC(C)(C)O)c1nc(NCc2nc3cc(F)c(F)cc3[nH]2)n2ncc(C3CC3)c2n1 [Example 319, 1-[(8-cyclopropyl-4-{[(5,6-difluoro-1H-benzimidazol-2-yl)methyl]amino}pyrazolo[1,5-a][1,3,5]triazin-2-yl)(methyl)amino]-2-methylpropan-2-ol] | 2380 | 0.492
2 | CN(CC(C)(C)O)c1nc(NCc2nc3c(F)c(Cl)ccc3[nH]2)n2ncc(Br)c2n1 [Example 374, 1-[(8-bromo-4-{[(5-chloro-4-fluoro-1H-benzimidazol-2-yl)methyl]amino}pyrazolo[1,5-a][1,3,5]triazin-2-yl)(methyl)amino]-2-methylpropan-2-ol] | 155 | 0.345
3 | CC(C)c1cnn2c(NCc3ncc(-c4ccccc4)[nH]3)nc(N3CCOCC3)nc12 [Example 30, 2-(morpholin-4-yl)-N-[(5-phenyl-1H-imidazol-2-yl)methyl]-8-(propan-2-yl)pyrazolo[1,5-a][1,3,5]triazin-4-amine] | 2950 | 4.1
4 | Fc1cc2nc(CNc3nc(N4CC5CCC(C4)N5)nc4c(C5CC5)cnn34)[nH]c2cc1F [Example 325, 8-cyclopropyl-2-(3,8-diazabicyclo[3.2.1]octan-3-yl)-N-[(5,6-difluoro-1H-benzimidazol-2-yl)methyl]pyrazolo[1,5-a][1,5]triazin-4-amine] | 3550 | 0.53
5 | CN(CC(C)(C)O)c1nc(NCc2nc3cc(F)c(F)cc3[nH]2)n2ncc(Br)c2n1 [Example 347] | 2180 | 0.101
6 | Cc1cc2nc(CNc3nc(N(C)CC(C)(C)O)nc4c(C5CC5)cnn34)[nH]c2cc1C [Example 321, 1-[(8-cyclopropyl-4-{[(5,6-dimethyl-1H-benzimidazol-2-yl)methyl]amino}pyrazolo[1,5-a][1,3,5]triazin-2-yl)(methyl)amino]-2-methylpropan-2-ol] | 416 | 1.36
7 | Fc1cc2nc(CNc3nc(N4CC5CCC(C4)N5)nc4c(Br)cnn34)[nH]c2cc1F [Example 355, 8-bromo-2-(3,8-diazabicyclo[3.2.1]octan-3-yl)-N-[(5,6-difluoro-1H-benzimidazol-2-yl)methyl]pyrazolo[1,5-a][1,3,5]triazin-4-amine] | 4180 | 0.481
8 | Cc1cc2nc(CNc3nc(N4CC5CCC(C4)N5)nc4c(Br)cnn34)[nH]c2cc1C [Example 353, 8-bromo-2-(3,8-diazabicyclo[3.2.1]octan-3-yl)-N-[(5,6-dimethyl-1H-benzimidazol-2-yl)methyl]pyrazolo[1,5-a][1,3,5]triazin-4-amine] | 2520 | 0.644
9 | Fc1c(Cl)ccc2[nH]c(CNc3nc(N4CC5CCC(C4)N5)nc4c(Br)cnn34)nc12 [Example 380, 8-bromo-N-[(5-chloro-4-fluoro-1H-benzimidazol-2-yl)methyl]-2-(3,8-diazabicyclo[3.2.1]octan-3-yl)pyrazolo[1,5-a][1,3,5]triazin-4-amine] | 1020 | 0.22
10 | FC(F)(F)c1ccc2[nH]c(CNc3nc(N4CC5CCC(C4)N5)nc4c(C5CC5)cnn34)nc2c1 [Example 327, 8-cyclopropyl-2-(3,8-diazabicyclo[3.2.1]octan-3-yl)-N-{[5-(trifluoromethyl)-1H-benzimidazol-2-yl]methyl}pyrazolo[1,5-a][1,3,5]triazin-4-amine] | 2350 | 0.493
11 | CN1CCN(c2nc(NCc3nc4cc(C(F)(F)F)ccc4[nH]3)n3ncc(Br)c3n2)CC1 [Example 344, 8-bromo-2-(4-methylpiperazin-1-yl)-N-{[5-(trifluoromethyl)-1H-benzimidazol-2-yl]methyl}pyrazolo[1,5-a][1,3,5]triazin-4-amine] | 8370 | 0.392
12 | CN1C2CCC1CN(c1nc(NCc3nc4c(F)c(F)ccc4[nH]3)n3ncc(C(F)(F)F)c3n1)C2 [Example 356, N-[(4,5-difluoro-1H-benzimidazol-2-yl)methyl]-2-(8-methyl-3,8-diazabicyclo[3.2.1]octan-3-yl)-8-(trifluoromethyl)pyrazolo[1,5-a][1,3,5]triazin-4-amine] | 4910 | 2.01
13 | Cc1cc2nc(CNc3nc(N(C)CC(C)(C)O)nc4c(Br)cnn34)[nH]c2cc1C [Example 343, 1-[(8-bromo-4-{[(5,6-dimethyl-1H-benzimidazol-2-yl)methyl]amino}pyrazolo[1,5-a][1,3,5]triazin-2-yl)(methyl)amino]-2-methylpropan-2-ol] | 188 | 0.0978
14 | CN1CCN(c2nc(NCc3nc4c(F)c(Cl)ccc4[nH]3)n3ncc(C4CC4)c3n2)CC1 [Example 371, N-[(5-chloro-4-fluoro-1H-benzimidazol-2-yl)methyl]-8-cyclopropyl-2-(4-methylpiperazin-1-yl)pyrazolo[1,5-a][1,3,5]triazin-4-amine] | 5250 | 0.652
15 | Fc1ccc2[nH]c(CNc3nc(N4CCOCC4)nc4c(Cl)cnn34)nc2c1F [Example 357] | 1150 | 0.552
16 | CN1C2CCC1CN(c1nc(NCc3nc4c(F)cccc4[nH]3)n3ncc(C(F)(F)F)c3n1)C2 [Example 384, N-[(4-fluoro-1H-benzimidazol-2-yl)methyl]-2-(8-methyl-3,8-diazabicyclo[3.2.1]octan-3-yl)-8-(trifluoromethyl)pyrazolo[1,5-a][1,3,5]triazin-4-amine] | 8110 | 0.662
17 | Cc1cc2nc(CNc3nc(N4CCOCC4)nc4c(Br)cnn34)[nH]c2cc1C [Example 340, 8-bromo-N-[(5,6-dimethyl-1H-benzimidazol-2-yl)methyl]-2-(morpholin-4-yl)pyrazolo[1,5-a][1,3,5]triazin-4-amine] | 618 | 0.827
18 | Clc1cc2nc(CNc3nc(N4CC5CCC(C4)N5)nc4c(Br)cnn34)[nH]c2cc1Cl [Example 334, 8-bromo-2-(3,8-diazabicyclo[3.2.1]octan-3-yl)-N-[(5,6-dichloro-1H-benzimidazol-2-yl)methyl]pyrazolo[1,5-a][1,3,5]triazin-4-amine] | 2030 | 2.06
19 | Fc1cc2nc(CNc3nc(N4CCOCC4)nc4c(Br)cnn34)[nH]c2cc1Cl [Example 336, 8-bromo-N-[(6-chloro-5-fluoro-1H-benzimidazol-2-yl)methyl]-2-(morpholin-4-yl)pyrazolo[1,5-a][1,3,5]triazin-4-amine] | 789 | 0.52
20 | CN(CC(C)(C)O)c1nc(NCc2nc3c(F)c(Cl)ccc3[nH]2)n2ncc(C3CC3)c2n1 [Example 387, 1-[(4-{[(5-chloro-4-fluoro-1H-benzimidazol-2-yl)methyl]amino}-8-cyclopropylpyrazolo[1,5-a][1,3,5]triazin-2-yl)(methyl)amino]-2-methylpropan-2-ol] | 233 | –
21 | FC(F)(F)c1ccc2[nH]c(CNc3nc(N4CCOCC4)nc4c(Br)cnn34)nc2c1 [Example 339, 8-bromo-2-(morpholin-4-yl)-N-{[5-(trifluoromethyl)-1H-benzimidazol-2-yl]methyl}pyrazolo[1,5-a][1,3,5]triazin-4-amine] | 1550 | –
22 | CN(CC(C)(C)O)c1nc(NCc2nc3cc(OC(F)(F)F)ccc3[nH]2)n2ncc(Br)c2n1 [Example 378, 1-{[8-bromo-4-({[5-(trifluoromethoxy)-1H-benzimidazol-2-yl]methyl}amino)pyrazolo[1,5-a][1,3,5]triazin-2-yl](methyl)amino}-2-methylpropan-2-ol] | 440 | –
23 | Fc1cccc(-c2nnc(CNc3nc(N4CCOCC4)nc4c(C(F)(F)F)cnn34)[nH]2)c1 [Example 385, N-{[5-(3-fluorophenyl)-4H-1,2,4-triazol-3-yl]methyl}-2-(morpholin-4-yl)-8-(trifluoromethyl)pyrazolo[1,5-a][1,3,5]triazin-4-amine] | 280 | –
24 | CN1CCN(c2nc(NCc3nc4c(F)cccc4[nH]3)n3ncc(Cl)c3n2)CC1.O=CO [Example 362, formic acid 8-chloro-N-[(4-fluoro-1H-benzimidazol-2-yl)methyl]-2-(4-methylpiperazin-1-yl)pyrazolo[1,5-a][1,3,5]triazin-4-amine] | 13100 | –
25 | Clc1cc2nc(CNc3nc(N4CCOCC4)nc4c(Br)cnn34)[nH]c2cc1Cl [Example 329, 8-bromo-N-[(5,6-dichloro-1H-benzimidazol-2-yl)methyl]-2-(morpholin-4-yl)pyrazolo[1,5-a][1,3,5]triazin-4-amine] | 540 | –
26 | FC(F)(F)c1cnn2c(NCc3nc4cc(Cl)c(Cl)cc4[nH]3)nc(N3CCOCC3)nc12 [Example 332, N-[(5,6-dichloro-1H-benzimidazol-2-yl)methyl]-2-(morpholin-4-yl)-8-(trifluoromethyl)pyrazolo[1,5-a][1,3,5]triazin-4-amine] | 190 | –
27 | Fc1cc(F)cc(-c2nnc(CNc3nc(N4CCOCC4)nc4c(C(F)(F)F)cnn34)[nH]2)c1 [Example 386, N-{[5-(3,5-difluorophenyl)-4H-1,2,4-triazol-3-yl]methyl}-2-(morpholin-4-yl)-8-(trifluoromethyl)pyrazolo[1,5-a][1,3,5]triazin-4-amine] | 115 | –
28 | Brc1cnn2c(NCc3nc4ccccc4[nH]3)nc(N3CC4CCC(C3)O4)nc12 [Example 351, N-[(1H-benzimidazol-2-yl)methyl]-8-bromo-2-(8-oxa-3-azabicyclo[3.2.1]octan-3-yl)pyrazolo[1,5-a][1,3,5]triazin-4-amine] | 9350 | –
